One assay relates to primary microglial cells. Put plainly: Microglial phagocytosis of FAM-labeled Aβ1-42. The format is cell-based, mouse. Conditions: 500 nM FAM-Aβ1-42.
Assay [1] has as its system APP/PS1 mice. The assay is described as follows: Eight arm radial maze test. The format is in vivo, mouse.
Assay [2] deals with APP/PS1 mice. The assay is described as follows: Brain extract Aβ immunoblot and Aβ1-40/Aβ1-42 ELISA. The format is in vivo, mouse. For orientation: In western blotting, separated proteins are transferred to a membrane and probed.
Assay [3] deals with APP/PS1 mice. Put plainly: Hippocampal LTP recording on brain slices of treated mice. The format is in vivo, mouse. The source says:
(n=5+/−SEM) Right panel: Evaluation of the early (slope 1; […]; […]) of the amplitude of the mean fEPSP (n=5+/−SEM of ten minutes recordings, one-way ANOVA, Newman-Keuls post test, *p<0.05; **p<0.01; ***p<0.001) (2B) Determination of the slope of the mean fEPSP as in A. Right panel: Evaluation of the amplitude of the mean fEPSP (2C) Immunblot of brain homogenates and synaptosomal fractions in wild type and APP/PS1 animals at 12 month of age using an anti-S-nitrocystein specific antibody. (2D) Coomassie stain of anti-S-nitrocystein antibody precipitated synaptosomal fractions from wild type, APP/PS1, APP/PS1 iNOS (−/−) and APP/PS1 L-NIL mice separated by SDS-PAGE (2E) Protein sequence of Hsp75/mortalin. […]
Physiological recordings were performed on brain slices from 3 month old male and female mice, obtained after anesthetization with isoflurane and decapitation. […] Basal synaptic transmission (BST) was assessed by plotting the current (mA) against the peak amplitudes of fEPSP to generate input-output relations. Paired pulse facilitation (PPF) were recorded by applying interstimulus intervals of 30, 50, 75 and 100 ms. For long term potentiation (LTP) experiments a 15 min baseline were recorded with a interpulse interval of one minute at an intensity that evoked a response approximately 30% of maximum fEPSP. […]

In assay [4] the test system is Aβ1-42. The assay is described as follows: Thioflavin T aggregation assay. The assay is classed as biochemical, human. The settings on record: peptide treated with peroxynitrite, compared with Aβ1-42. How it is done: (§1) Aβ1-42, Aβ1-42 Y10F (Peptide Specialty Laboratories) were solubilized as previously described. For nitration samples were incubated with 0.25-0.5 mM peroxynitrate in water while vortexing. Aggregation was started by diluting samples to 25 μM using 50 mM Tris-HCl pH 7. Samples were separated by 4-12% NuPAGE and aggregates were detected using anti-body 6E10 (Signet) and 3-NTyr10-Aβ. Aggregation was expressed as a ratio between the signal above 30 kDa and the Aβ monomer, normalized to the 0 time point of Aβ1-42. Thioflavin T fluorescence assays were performed as described previously. Fluorescence was read at 446 nm (excitation) and 482 nm (emission) using a fluorescence spectrophotometer (Varian).

Assay [5] has as its system Aβ1-42. The assay is described as follows: Aβ aggregation assay (SDS-PAGE, immunoblot 6E10). Conditions: compared with Aβ1-42. The assay is classed as biochemical, human. How it is done: (§2) (6B) Same assay as in A but samples were incubated for different time periods with PN.
(§3) Peptides were separated by 4-12% Nupage and blotted transferred nitrocelluse and incubated with antibody 6E10 (Signet). The remaining sample was stored at −20° C. and analyzed by mass spectrometry. In case of the time course experiment the reaction was stopped using Nupage sample buffer followed by incubation at 70 C for 5 min.
as §1

In assay [6] the target is T1, Aβ1-42 (Homo sapiens, UniProt P05067).
T1 construct: Amyloid β 1-42 or Amyloid β 1-42 Y10A (both from rPeptide, Bogart, Ga., USA); host or cells: synthetic peptide
Put plainly: Aβ aggregation assay (SDS-PAGE, immunoblot 6E10). The format is biochemical. Conditions: for high molecular weight (SDS-resistant) aggregates of synthetic Aβ1-42 after incubation with the agent: 5 mM Sin-1 or 0.25 mM peroxynitrite, 18 h. How it is done:
as §2, §3, §1

Assay [7] concerns the target T2, recombinant IDE (Homo sapiens, UniProt P14735).
T2 construct: purchased R&D
T2 sequence (P14735 1-1019): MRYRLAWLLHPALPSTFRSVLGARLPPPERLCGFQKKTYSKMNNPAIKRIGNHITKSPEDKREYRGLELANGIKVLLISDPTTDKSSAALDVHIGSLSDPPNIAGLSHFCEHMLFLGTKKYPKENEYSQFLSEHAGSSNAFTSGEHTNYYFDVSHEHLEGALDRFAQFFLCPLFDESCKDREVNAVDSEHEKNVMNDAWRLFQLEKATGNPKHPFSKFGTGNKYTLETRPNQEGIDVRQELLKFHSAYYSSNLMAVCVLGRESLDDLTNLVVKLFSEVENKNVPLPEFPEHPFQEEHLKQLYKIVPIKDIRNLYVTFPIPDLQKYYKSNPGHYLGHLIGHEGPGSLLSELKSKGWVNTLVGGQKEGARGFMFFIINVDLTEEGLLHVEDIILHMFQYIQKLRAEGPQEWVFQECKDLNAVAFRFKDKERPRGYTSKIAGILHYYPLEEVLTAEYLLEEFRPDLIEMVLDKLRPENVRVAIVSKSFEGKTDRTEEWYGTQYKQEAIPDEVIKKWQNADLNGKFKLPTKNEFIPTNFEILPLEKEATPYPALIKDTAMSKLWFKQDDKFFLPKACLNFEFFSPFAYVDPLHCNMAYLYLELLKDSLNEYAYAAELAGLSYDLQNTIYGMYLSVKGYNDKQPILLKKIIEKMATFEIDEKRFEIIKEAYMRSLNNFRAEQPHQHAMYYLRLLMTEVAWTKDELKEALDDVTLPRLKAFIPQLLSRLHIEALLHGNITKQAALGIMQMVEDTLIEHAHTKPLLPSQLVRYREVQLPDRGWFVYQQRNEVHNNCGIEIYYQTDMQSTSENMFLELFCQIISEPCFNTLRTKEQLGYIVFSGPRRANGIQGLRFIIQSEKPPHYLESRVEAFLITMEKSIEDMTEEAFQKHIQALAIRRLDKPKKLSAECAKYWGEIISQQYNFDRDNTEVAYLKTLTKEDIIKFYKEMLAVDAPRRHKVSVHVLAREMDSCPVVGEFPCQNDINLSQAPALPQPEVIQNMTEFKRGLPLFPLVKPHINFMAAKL
The assay is described as follows: Fluorogenic substrate enzymatic assay, IDE. The assay is classed as biochemical. Conditions: 1 mM Sin-1, 30 min preincubation. How it is done:
(§4) Afterwards the substrate was added to a final concentration of 10 μM. The hydrolysis of substrate V was measured based on the increase of fluorescence (exitation 320 nm/emission 405 nm) using a Spectrafluor Plus (Tecan, Austria) plate reader for a time period of up to 60 min in 1 min intervals at 37 C. Determination of IDE activity in mouse brain was performed using the fluorogenic peptide substrate 2-aminobenzoyl-[…]-ethylenediamine-2,4-dinitrophenyl (Bachem, Switzerland)^21. For that mice brains were homogenized in PBS containing 1 mM AEBSF, extracted with 1% Tx-100 and centrifuged at 100000×g for 30 min. 10 μg of supernatants were incubated with 25 μM phosphoramidon to inhibit endogenous neprilysin activity. The fluorogenic substrate was added to a final concentration of 20 μM and the resulting fluorescence signal was measured (excitation 320 nm/emission 413 nm) every 3 min for up to 2 h at 37° C. using a infinite 200 plate reader (Tecan, Austria). Evaluation was done within the linear range of the reaction.

In the next assay the target is T3, recombinant neprilysin (Homo sapiens, UniProt P08473).
T3 construct: purchased R&D
Put plainly: Fluorogenic substrate enzymatic assay, neprilysin. The format is biochemical. The settings on record: preincubation with different concentrations of Sin-1. How it is done:
as §4

Assay [8] has as its target T2, recombinant IDE. Put plainly: Immunoblot of IDE nitration after Sin-1 incubation. The settings on record: Sin-1 incubated with purified recombinant IDE. The format is biochemical.
For assay [9], the target named is T2, recombinant IDE. The assay is described as follows: Aβ degradation assay. The format is biochemical. Conditions: IDE preincubated with increasing concentration of Sin-1, then Aβ1-42 for 2 h. An excerpt: Samples were separated by 4-12% NuPAGE and immunoblotted using antibodies PC720 against IDE and 6E10 against Aβ (5E) RIPA fractions of 12 month wild type, APP/PS1 and APP/PS1 iNOS (−/−) animals were monitored for their ability to cleave a fluorgenic peptide substrate in the presence of the neprilysin inhibitor phosphoramidon (n=4+/−SEM, one way anova followed by Tukey post hoc test, […], *p<0.05)

The target in assay [10] is T1, Aβ1-42. Put plainly: In vitro Aβ1-42 aggregation with added nitrated Aβ1-42. The assay is classed as biochemical. The settings on record: 25 μM Aβ1-42, 5 h, antibody IC16.
Setting [11] is: APP/PS1 mice at 3 month of age, L-NIL orally in the water from 2-3 month.

Entries after “also recorded” stand apart in the source; their conditions may differ.

T1 sequence (P05067 672-713): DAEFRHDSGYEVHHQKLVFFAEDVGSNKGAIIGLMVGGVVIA
T3 sequence (P08473 whole entry, species assumed): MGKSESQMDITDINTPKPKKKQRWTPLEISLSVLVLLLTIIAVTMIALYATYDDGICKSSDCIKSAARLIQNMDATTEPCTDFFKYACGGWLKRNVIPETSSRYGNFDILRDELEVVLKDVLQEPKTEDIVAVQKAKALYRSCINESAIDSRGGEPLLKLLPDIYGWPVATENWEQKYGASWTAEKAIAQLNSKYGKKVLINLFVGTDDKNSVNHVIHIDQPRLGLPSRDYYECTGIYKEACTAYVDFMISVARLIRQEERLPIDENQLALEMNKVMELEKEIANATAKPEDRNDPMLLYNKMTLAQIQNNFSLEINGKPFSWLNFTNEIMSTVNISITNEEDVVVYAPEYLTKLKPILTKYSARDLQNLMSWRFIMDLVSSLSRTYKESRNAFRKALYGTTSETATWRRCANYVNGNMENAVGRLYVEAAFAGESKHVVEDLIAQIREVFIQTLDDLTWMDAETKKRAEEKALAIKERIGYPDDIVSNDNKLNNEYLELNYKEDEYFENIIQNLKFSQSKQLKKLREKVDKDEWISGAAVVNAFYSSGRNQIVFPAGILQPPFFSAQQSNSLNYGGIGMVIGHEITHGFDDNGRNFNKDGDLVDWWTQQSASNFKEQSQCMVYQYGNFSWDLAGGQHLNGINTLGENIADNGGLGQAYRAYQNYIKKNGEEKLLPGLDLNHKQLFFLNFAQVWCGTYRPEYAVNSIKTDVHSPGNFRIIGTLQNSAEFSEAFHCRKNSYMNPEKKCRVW
Experimental for primary microglial cells: (4A) Analysis of phagocytosis of primary microglia cells from wild type (wt) and iNOS deficient (iNOS (−/−)) mice exposed to 500 nM fibrillar FAM labeled Aβ1-42 peptide for up to 6 h.
Primary microglial cell cultures were prepared as previously described. Briefly, mixed glial cultures were prepared from newborn mice and cultured in DMEM supplemented with 10% FCS and 100 U ml^−1 penicillin/streptomycin. After 10-14 days of primary cultivation, microglial cells were harvested by shake off.
Microglial phagocytosis of FAM-labeled Aβ1-42 (FAM-Aβ) (Anaspec, San Diego, Calif.) was measured by plate based assay. Cells were plated at 50000 cells per well. After 1 h cells Aβ was added to a final concentration of 500 nM and incubated. Finally, the Aβ-containing medium was removed and extracellular Aβ was quenched with 100 μl 0.2% trypan blue in PBS pH 4.4 for 1 min. After aspiration fluorescence was measured at 485 nm excitation/535 nm emission using a Spectrafluor Plus reader (Tecan, Austria). To normalize for cell numbers 100 μl 50 μg/ml H33342 in PBS was added, incubated for 30 min and the fluorescence measured at 360 nm excitation/465 nm emission.

With `CC(=N)NCCCC[C@H](N)C(=O)O` [L-NIL, L-N6-(1-iminoethyl)-lysine], the Aβ1-42 phagocytosis entry in the assay on primary microglial cells (L-NIL 10 μM) was “did not expose differences”. Besides, the working memory errors result in the assay with APP/PS1 mice [1] (APP/PS1 mice at 3 and 12 months of age (summary statement)) is “significant reduction”; with APP/PS1 mice [1] (setting [11]), “to some extent”. In addition, the reference memory errors entry in the assay with APP/PS1 mice [1] (setting [11]) is on record as “protected”; with APP/PS1 mice [1] (APP/PS1 mice at 12 month of age, L-NIL from 6-12 month (post plaque, therapeutic)) it was “reversion of APP/PS1 phenotype”. Besides, in the assay with APP/PS1 mice [1] (APP/PS1 mice treated with L-NIL, age not stated (summary statement)), the “working and reference memory errors” value is on record as “reduction”. For the same compound, the “levels of insoluble and soluble Aβ40 and Aβ42 by ELISA” value in the assay with APP/PS1 mice [2] (5 month old APP/PS1 mice preventively treated with L-NIL from 2-3 month) is given as “unable to detect any changes”. The “insoluble Aβ by immunoblot and insoluble Aβ 1-40 and Aβ 1-42 by ELISA” value in the assay with APP/PS1 mice [2] (12 month old APP/PS1 mice, L-NIL from 6-12 month) is “strong reduction”. In addition, the LTP result with APP/PS1 mice [3] (APP/PS1 mice at 3 months of age (summary statement)) is “improvement”. Also, the “APP/PS1 induced reduction (suppression) of early and late phase hippocampal LTP” value with APP/PS1 mice [3] (hippocampal slices of 3 month old mice, L-NIL from 2-3 month, 10 and after induction) is recorded as “completely prevented; also recorded: not existent”.
As for “Aβ42Y10F: Aβ1-42 peptide with a tyrosine to phenylalanine mutation at position 10”, the “formation rate of β-sheet amyloid fibril structures (thioflavin T)” value in the assay with Aβ1-42 [4] is on record as “prevented”. The “high molecular weight aggregates of the mutated peptide after incubation with peroxynitrite or Sin-1” value with Aβ1-42 [5] is given as “reduced aggregation to the level of untreated Aβ1-42”.
Regarding “Aβ42Y10A: modified human Aβ1-42, tyrosine at position 10 replaced by an alanine (SEQ ID NO. 2)”, the “high molecular weight aggregates of the mutated peptide after incubation with peroxynitrite or Sin-1” value with Aβ1-42 [5] is “reduced aggregation to the level of untreated Aβ1-42”.
Take `CC(=O)N[C@@H](C(=O)O)C(C)(C)SN=O` (racemic) [SNAP]: the Aβ1-42 phagocytosis result with primary microglial cells (SNAP 100 μM) is “did not expose differences”.
In the case of `N=c1c[n+](N2CCOCC2)[n-]o1` [Sin-1, 3-morpholino-sydnonimine], the “high molecular weight (SDS-resistant) aggregates of synthetic Aβ1-42 after incubation with the agent” value at Aβ1-42 [6] is listed as “strong induction; also recorded: increased generation”. Besides, the IDE activity result at recombinant IDE [7] is given as “almost complete inhibition”. Further, the activity of neprilysin result on recombinant neprilysin was “could not detect any impact”. In addition, the “nitration of IDE (nitrotyrosine immunoblot)” value at recombinant IDE [8] was “modifications of IDE detectable with an nitrotyrosine specific antibody”. Further, the “degradation of Aβ1-42 by IDE” value on recombinant IDE [9] is “decreased degradation”.
As for `O=NOO` [peroxynitrite], the “high molecular weight (SDS-resistant) aggregates of synthetic Aβ1-42 after incubation with the agent” value at Aβ1-42 [6] is “increased generation”; on Aβ1-42 [6] (listed as peroxynitrit) it was “strong induction”. Besides, the “increase of high molecular aggregates over time” value at Aβ1-42 [6] (within 24 h after peroxynitrite treatment) was “x-fold increase”.
On to “nitrated Aβ1-42: synthetic Aβ1-42 nitrated at tyrosine 10 by peroxynitrite treatment”, for which the “formation of Aβ oligomers on addition of small amounts of nitrated Aβ1-42 species” value with Aβ1-42 [10] is reported as “increased formation”. Besides, in the assay with Aβ1-42 [4], the “formation rate of β-sheet amyloid fibril structures (thioflavin T)” value is recorded as “increased formation rate”.

The values above are taken from patent US9011862B2, “Inhibitors of the nitration of amyloid β peptides and their uses in the diagnosis and treatment of Alzheimer's disease” (Rheinische Friedrich-Wilhelms-Universität Bonn, priority 2009, dated 2015).
